Laboratory results published in patent US10227331B2 (priority 2015, dated 2019).

Key:
[1] = test system: P. aeruginosa expressing IMP-1, efflux− (MB9799); assay: Efflux: concentration of MBL inhibitor which restores susceptibility to imipenem; type: cell-based, Pseudomonas aeruginosa; details: imipenem at 2 μg/mL, in the presence of a class A, C, D serine β-lactamase inhibitor closely related to relebactam
Source text: (§1) The strain background is Pseudomonas aeruginosa PAO1.

NDM-1 = NDM-1 (Klebsiella pneumoniae, UniProt C7C422); assay: biochemical; type: biochemical; details: CCF2-FA substrate, 2 hours at 25° C; read-out: NDM-1 IC50
Chain of NDM-1 (C7C422 whole entry, looked up, species assumed): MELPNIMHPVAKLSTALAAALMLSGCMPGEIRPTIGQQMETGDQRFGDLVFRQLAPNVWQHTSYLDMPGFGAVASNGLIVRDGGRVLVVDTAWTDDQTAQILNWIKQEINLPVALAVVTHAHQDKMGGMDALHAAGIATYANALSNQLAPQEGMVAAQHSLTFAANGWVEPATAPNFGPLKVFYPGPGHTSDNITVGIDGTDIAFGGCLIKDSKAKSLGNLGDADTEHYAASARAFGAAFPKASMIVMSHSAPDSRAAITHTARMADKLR
Method in brief: (§2)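 Test compound, enzyme and the FRET cephalosporin substrate CCF2-FA are incubated together for 2 hours at 25° C. Cleavage is followed by fluorescence, and IC50 values are derived from semi-logarithmic inhibition curves fitted with a 4-parameter model.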

IMP-1 = IMP-1 (Serratia marcescens, UniProt P52699); assay: biochemical; type: biochemical; details: CCF2-FA substrate, 2 hours at 25° C; read-out: IMP-1 IC50
Chain of IMP-1 (P52699 whole entry, looked up, species assumed): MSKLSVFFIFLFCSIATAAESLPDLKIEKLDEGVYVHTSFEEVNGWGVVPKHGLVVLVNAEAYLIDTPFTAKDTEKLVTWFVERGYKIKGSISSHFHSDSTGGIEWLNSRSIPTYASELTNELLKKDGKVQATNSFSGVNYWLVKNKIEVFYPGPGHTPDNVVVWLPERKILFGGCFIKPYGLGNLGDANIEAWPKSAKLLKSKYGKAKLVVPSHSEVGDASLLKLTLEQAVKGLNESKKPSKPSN
Method in brief: as §2

VIM-1 = VIM-1 (Pseudomonas aeruginosa (strain ATCC 15692 / DSM 22644 / CIP 104116 / JCM 14847 / LMG 12228 / 1C / PRS 101 / PAO1), UniProt A0A0F7KYQ8); assay: biochemical; details: CCF2-FA substrate, 2 hours at 25° C
Method in brief: as §2

[2] = test system: Escherichia coli expressing NDM-1 (CLB30005, CLB30016); type: cell-based; details: with imipenem 1 μg/ml, 95% inhibition of bacterial growth; for Escherichia coli MITC95: NDM-1 (CLB30016)
Method in brief: (§3)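 Clinical strains grown overnight on blood agar, then diluted 1:100 in 1.1× CAMHB and exposed to test compound with imipenem at 1 μg/ml. Incubation was 22–24 h at 35° C; growth was read by absorbance to find the compound concentration restoring imipenem susceptibility.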

[3] = test system: Klebsiella pneumoniae expressing VIM-1 (IHMA599644); type: cell-based; details: with imipenem 1 μg/ml, 95% inhibition of bacterial growth; for Klebsiella pneumoniae MITC95: VIM-1 (IHMA599644)
Method in brief: as §3

[4] = test system: Serratia marcescens expressing IMP-1 (CL5741); type: cell-based; details: with imipenem 1 μg/ml, 95% inhibition of bacterial growth; for Serratia marcescens MITC95: IMP-1 (CL5741)
Method in brief: as §3

[5] = test system: P. aeruginosa expressing IMP-1, efflux+ (MB9798); type: cell-based, Pseudomonas aeruginosa; details: for P. aeruginosa expressing IMP-1, efflux+ (MB9798) MITC95: imipenem at 2 μg/mL, in the presence of a class A, C, D serine β-lactamase inhibitor closely related to relebactam; for Efflux ratio: ratio MITC95 PA_9798/MITC95 PA_9799
Source text: as §1

| SMILES | P. aeruginosa expressing IMP-1, efflux− (MB9799) MITC95 [1] | IC50 (NDM-1) | IC50 (IMP-1) | IC50 (VIM-1) | Escherichia coli expressing NDM-1 (CLB30016) MITC95 [2] | Klebsiella pneumoniae expressing VIM-1 (IHMA599644) MITC95 [3] | Serratia marcescens expressing IMP-1 (CL5741) MITC95 [4] | P. aeruginosa expressing IMP-1, efflux+ (MB9798) MITC95 [5] | Efflux ratio [5] | Escherichia coli MITC95 [2] | Klebsiella pneumoniae MITC95 [3] | Serratia marcescens MITC95 [4] |
| --- | --- | --- | --- | --- | --- | --- | --- | --- | --- | --- | --- | --- |
| NS(=O)(=O)c1c(S(=O)(=O)C2CNC2)ccc(-c2cnc3cc[nH]c3c2)c1-c1nn[nH]n1 [Example 16, 6-(Azetidin-3-ylsulfonyl)-3-(1H-pyrrolo[3,2-b]pyridin-6-yl)-2-(2H-tetrazol-5-yl)benzenesulfonamide] | 1.563 µM | 0.49 nM | 2.37 nM | 0.653 nM | 0.3906 µM | 3.125 µM | 0.7813 µM | 6.25 µM | 4.00 |  |  |  |
| CCn1c(N)nc2c(-c3ccc(S(=O)(=O)C4CNC4)c(S(N)(=O)=O)c3-c3nn[nH]n3)cccc21 [Example 283, 3-(2-amino-1-ethyl-1H-benzo[d]imidazol-4-yl)-6-(azetidin-3-ylsulfonyl)-2-(2H-tetrazol-5-yl)benzenesulfonamide] | 1.563 µM | 0.116 nM | 0.496 nM | 0.348 nM |  |  |  | 6.25 µM | 4.00 | 0.3906 µM | 1.563 µM | 1.563 µM |
| NC(=O)c1cn2cccc(-c3ccc(S(=O)(=O)C4CNC4)c(S(N)(=O)=O)c3-c3nnn[nH]3)c2n1 [Example 59, 8-(4-(azetidin-3-ylsulfonyl)-3-sulfamoyl-2-(1H-tetrazol-5-yl)phenyl)imidazo[1,2-a]pyridine-2-carboxamide] | 1.563 µM | 0.131 nM | 1.44 nM | 0.187 nM | 3.125 µM | 3.125 µM | 3.125 µM | 3.125 µM | 2.00 |  |  |  |
| NS(=O)(=O)c1c(S(=O)(=O)C2CCNCC2)ccc([C@H]2CC[C@H](N)CC2)c1-c1nnn[nH]1 [Example 207, 3-((1r,4r)-4-aminocyclohexyl)-6-(piperidin-4-ylsulfonyl)-2-(1H-tetrazol-5-yl) benzenesulfonamide] | 1.563 µM | 15.9 nM | 24.6 nM | 0.71 nM | 2.344 µM | 3.125 µM | 3.125 µM | 3.125 µM | 2.00 |  |  |  |
| NCCS(=O)(=O)c1ccc(-c2cccc3sc(C(N)=O)nc23)c(-c2nn[nH]n2)c1S(N)(=O)=O [Example 89, 4-(4-(2-aminoethylsulfonyl)-3-sulfamoyl-2-(2H-tetrazol-5-yl)phenyl)benzo[d]thiazole-2-carboxamide] | 1.563 µM | 0.277 nM | 0.601 nM | 0.152 nM | 1.563 µM | 3.125 µM | 1.563 µM | 3.125 µM | 2.00 |  |  |  |
| NCC(O)CS(=O)(=O)c1ccc(-c2cccc3sc(N)nc23)c(-c2nn[nH]n2)c1S(N)(=O)=O (centres unmarked) [Example 97, 6-(3-amino-2-hydroxypropylsulfonyl)-3-(2-aminobenzo[d]thiazol-4-yl)-2-(2H-tetrazol-5-yl)benzenesulfonamide] | 0.7813 µM | 0.0645 nM | 0.171 nM | 0.249 nM | 0.7813 µM | 1.563 µM | 1.563 µM | 0.3906 µM |  |  |  |  |
| NC(=O)N1CCC(S(=O)(=O)c2ccc(-c3cccc4nc(N)[nH]c34)c(-c3nn[nH]n3)c2S(N)(=O)=O)CC1 [Example 49, 4-(4-(2-amino-3H-benzo[d]imidazol-4-yl)-2-sulfamoyl-3-(2H-tetrazol-5-yl)phenylsulfonyl)piperidine-1-carboxamide] | 3.125 µM | 0.278 nM | 1.37 nM | 0.308 nM | 6.25 µM | 6.25 µM | 6.25 µM | 12.5 µM | 4.00 |  |  |  |
| COc1ccc(Cc2cc3c(-c4ccc(S(=O)(=O)C5CNC5)c(S(N)(=O)=O)c4-c4nnn[nH]4)cccc3[nH]2)cc1 [Example 231, 6-(azetidin-3-ylsulfonyl)-3-(2-(4-methoxybenzyl)-1H-indol-4-yl)-2-(1H-tetrazol-5-yl)benzenesulfonamide] | 3.125 µM | 0.102 nM | 0.717 nM | 0.558 nM | 6.25 µM | 12.5 µM | 6.25 µM | 25 µM | 8.00 |  |  |  |
| NCCS(=O)(=O)c1ccc(-c2cccc3[nH]c(CC(N)C(=O)O)nc23)c(-c2nn[nH]n2)c1S(N)(=O)=O (centres unmarked) [Example 330, 2-amino-3-(4-(4-((2-aminoethyl)sulfonyl)-3-sulfamoyl-2-(2H-tetrazol-5-yl)phenyl)-1H-benzo[d]imidazol-2-yl)propanoic acid] | 3.125 µM | 0.675 nM | 3.61 nM | 0.639 nM |  |  |  | 6.25 µM | 2.00 | 3.125 µM | 6.25 µM | 1.563 µM |
| NCCS(=O)(=O)c1ccc(-c2ccc3[nH]c(=O)oc3c2)c(-c2nnn[nH]2)c1S(N)(=O)=O.O=C(O)C(F)(F)F [Example 155, 2-((4-(2-oxo-2,3-dihydrobenzo[d]oxazol-6-yl)-2-sulfamoyl-3-(1H-tetrazol-5-yl)phenyl)sulfonyl)ethanaminium 2,2,2-trifluoroacetate] | 0.7813 µM | 0.814 nM | 0.226 nM | 0.289 nM | 0.7813 µM | 1.563 µM | 1.563 µM | 3.125 µM | 4.00 |  |  |  |
| NCCS(=O)(=O)c1ccc(-c2cccc3nc(N)nn23)c(-c2nn[nH]n2)c1S(N)(=O)=O [Example 225, 3-(2-amino-[1,2,4]triazolo[1,5-a]pyridin-5-yl)-6-((2-aminoethyl)sulfonyl)-2-(2H-tetrazol-5-yl)benzenesulfonamide] | 1.563 µM | 0.164 nM | 1.97 nM | 0.229 nM | 1.563 µM | 3.125 µM | 1.563 µM | 3.125 µM | 2.00 |  |  |  |
